Marks after values point to notes of the source that are not given here.
How the values were obtained:
[1] = test system: miR-34a; test: qRT-PCR of primary and mature miR-34a in HCC cells; assay type: cell-based, human; settings: HCC cells (HepG2, FIG. 4B)
Experimental: (§1) Total RNA from cell cultures and HCC xenograft tumors were extracted using Trizol (Invitrogen) according to manufacturer's protocols. Total RNAs were dissolved into nuclease-free ddH2O. For protein extraction, cells and HCC xenograft tumors were lysed in 1×RIPA buffer with 1 mM PMSF and 1× complete protease inhibitor cocktail (Roche, Indianapolis, Ind.). Both RNA and protein were stored at −80° C.
(§2) Total RNA was reversely transcribed into cDNAs using High Capacity cDNA Reverse Transcription Kit (Applied Biosystems, Foster city, CA, USA) and nude RT kit (Invitrogen) individually. qRT-PCR was performed using SYBR Green PCR master mix (TaKaRa, Dalian, China). GAPDH was used as an endogenous control. For measuring miR-34a expression level, qPCR was performed by using SYBR Green PCR master mixture (Invitrogen) and U6 was used as the internal control. All samples were normalized to internal controls and fold changes were calculated by relative quantification (2^−ΔΔct).

[2] = test system: miR-34a; test: miR-34a reporter luciferase assay in Huh7 cells; assay type: cell-based, human
Experimental: The pMIR-REPORT™ luciferase plasmid (1 μg; Ambion) was sequentially double digested with Sac I and Hind III (10 units each, 50 μL reaction; NEB) and was gel purified. Double stranded insert DNA encoding the miR-34a binding site was synthesized through standard oligonucleotide synthesis methods. The sequences used were Forward: 5′z […]-3′ (SEQ ID NO:1) and Reverse: 5′: […]-3′ (SEQ ID NO:2). The insert was hybridized (heated to 95° C., and cooled to 4° C. over 30 min, then held at 4° C. for 60 min) and ligated with T4 ligase (200 units, 10 μL reaction, 1:10 vector/insert ratio; NEB) into the digested pMIR-REPORT™ luciferase vector. Positive colonies were selected by PCR colony screens, and the construction of the pMIR-REPORT™-miR-34a vector was confirmed by double enzyme digestion with NheI, MluI and Nhe I, Hind III (NEB). The luciferase reporter vector containing the miR-34a promoter was kindly provided by Prof. Mendell J T from Johns Hopkins University (21).
Huh7 cells were seeded into 96-well plates 12 h prior to transfection. MiR-34a reporter and the control vector were respectively co-transfected with Renilla luciferase pRL-SV40 into Huh7 cells. All transfections were performed in triplicate. The cells were incubated at 37° C. for 4 h followed by the replacement of transfection media with standard DMEM growth media with 10 μM of the natural products library (NPL) compounds (Tim Tec; 0.1% DMSO final concentration). This library contains 640 compounds including natural products and their derivatives. After 48 h of incubation, the media was removed and cells were lysed and the luciferase signals were measured by luciferase assay as described below.
MiR-34a reporter, the luciferase reporter vector containing miR-34a promoter and the control vectors were transfected into HCC cells 12 h before compound treatment. The Renilla luciferase vector pRL-SV40 was co-transfected as an internal control. HCC cells were then treated with compound for 48-72 h. The luciferase activity was measured by Dual Luciferase Reporter Assay (Promega) with a Wallac VICTOR^3V luminometer. The ratio of firefly luciferase to Renilla expression was calculated for each of the triplicates.

[3] = test system: Cyclin D1 and Bcl-2; test: qRT-PCR of Cyclin D1 and Bcl-2 in xenografted tumors; assay type: in vivo, nude mice; settings: excised tumors after 24 d gavage
Experimental: as §1, §2
(§3) Tumor volume was calculated as [(Length×Width×Height)[…]]. Treatment was continued for 24 d. Finally, all mice were sacrificed and tumors were excised. Tumor weight was recorded.

[4] = HepG2 xenograft model, survival, body weight and side effects
Experimental: 5×10^6 HepG2 cells were suspended in 100 μl serum-free medium and subcutaneously (s.c.) inoculated into the dorsal flanks of nude mice. When tumors reached 5-10 mm in diameter, mice were randomly divided into 4 groups (n=5). […] Vehicle alone and Sorafenib were used as the negative and positive control respectively. Tumor volumes and body weight were measured once every two days. Tumor volume was calculated as [(Length×Width×Height)±2]. Treatment was continued for 24 d. Finally, all mice were sacrificed and tumors were excised. Tumor weight was recorded.

[5] = test system: miR-34a; test: qRT-PCR of pri-miR-34a and miR-34a in xenografted tumors; assay type: in vivo, nude mice; settings: excised tumors after 24 d gavage
Experimental: as §1, §2, §3

[6] = test system: HepG2 xenografted tumor; test: HepG2 xenografted nude mice model, tumor growth; assay type: in vivo; settings: 50 mg/kg, gavage once every two days
Experimental: as §3

Compound: O=c1[nH]cc(F)c(=O)[nH]1 [5-Fluorouracil, reference compound]
- miR-34a expression after chemotherapeutic drugs [1]: no effect

Compound: COc1ccc(-c2cc(=O)c3c(O)cc(O)cc3o2)cc1 [Acacetin, 5,7-dihydroxy-4′-methoxyflavone]
- function as miR-34a activator, re-assayed in triplicate with miR-34a reporter system [2]: functions as the miR-34a activators are confirmed

Compound: N.N.[Cl][Pt][Cl] [Cisplatin, reference compound]
- miR-34a expression after chemotherapeutic drugs [1]: no effect

Compound: COc1cccc2c1C(=O)c1c(O)c3c(c(O)c1C2=O)C[C@@](O)(C(=O)CO)C[C@@H]3O[C@H]1C[C@H](N)[C@H](O)[C@H](C)O1 [Doxorubicin, reference compound]
- miR-34a expression after chemotherapeutic drugs [1]: no effect

Compound: CNC(=O)c1cc(Oc2ccc(NC(=O)Nc3ccc(Cl)c(C(F)(F)F)c3)cc2)ccn1 [Sorafenib, reference compound]
- Cyclin D1 and Bcl-2 expression in xenografted tumors [3]: no changes
- miR-34a expression after chemotherapeutic drugs [1]: no effect
- Body weight (g) initial ([4]; 50 mg/kg group, initial, mean (95% CI)): 20.00(95% CI = 18.76 − 21.24)/ g
- Body weight (g) end ([4]; 50 mg/kg, end of 24 d treatment, mean (95% CI)): 24.00(95% CI = 21.22 − 26.78) g
- Mice survival (n) initial/end ([4]; 50 mg/kg, gavage once every two days, 24 d): 5/5
- pri-miR-34a and miR-34a levels in xenografted tumors [5]: no changes
- Tumor growth inhibition (%) ([6]; 24 d): 84.22%
- Tumor weight (g) ([6]; day 24, mean (95% CI)): 0.186 (95% CI = 0.14 − 0.23)** g

— patent US10865176B2, “Small molecule modulators of microRNA-34a” (The Chinese University of Hong Kong, priority 2012, dated 2020)
